For one data set, the target named is T1, Srt1 (Mycosarcoma maydis, UniProt A0A0D1E1N5).
T1 construct: gene UMAG_02374; full-length ORF, 546 residues, 12 predicted TMDs, untagged in vector NEV-E; expressed in invertase-deficient S. cerevisiae SEY2102
Nature of the data set: competition with […]-sucrose uptake in srt1-expressing S. cerevisiae. Format: cell-based. The conditions noted are these: 10 mM competitor (100-fold excess) against 0.1 mM 14C-sucrose; pH 5.0, 29°C.

Data set [1] has as its system OC[C@H]1O[C@@](CO)(O[C@H]2O[C@H](CO)[C@@H](O)[C@H](O)[C@H]2O)[C@@H](O)[C@@H]1O. Nature of the data set: cells, lysate or membranes. The conditions noted are these: pH 5.0, 50 mM Na-phosphate, 29°C, H+ symport, labelled compound.

T1 sequence (A0A0D1E1N5 entry or part of it): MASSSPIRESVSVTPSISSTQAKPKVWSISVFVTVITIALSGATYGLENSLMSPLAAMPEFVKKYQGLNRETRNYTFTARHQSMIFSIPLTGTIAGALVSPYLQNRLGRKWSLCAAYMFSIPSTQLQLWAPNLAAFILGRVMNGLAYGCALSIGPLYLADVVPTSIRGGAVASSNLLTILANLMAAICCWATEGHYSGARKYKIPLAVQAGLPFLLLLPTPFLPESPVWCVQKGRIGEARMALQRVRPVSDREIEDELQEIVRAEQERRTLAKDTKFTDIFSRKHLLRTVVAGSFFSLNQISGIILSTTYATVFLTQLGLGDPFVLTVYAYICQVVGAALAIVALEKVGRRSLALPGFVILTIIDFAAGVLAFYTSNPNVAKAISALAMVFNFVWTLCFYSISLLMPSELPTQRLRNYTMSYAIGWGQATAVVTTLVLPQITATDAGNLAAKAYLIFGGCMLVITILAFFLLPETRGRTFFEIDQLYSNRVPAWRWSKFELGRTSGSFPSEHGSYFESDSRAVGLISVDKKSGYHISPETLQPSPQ

As for `OC[C@H]1O[C@H](OC[C@H]2O[C@H](O[C@]3(CO)O[C@H](CO)[C@@H](O)[C@@H]3O)[C@H](O)[C@@H](O)[C@@H]2O)[C@H](O)[C@@H](O)[C@H]1O` [raffinose], on Srt1, the “inhibition of sucrose uptake” value was “raffinose was the only alternative compound that caused a minor inhibition of sucrose uptake”.

By Km is commonly meant the concentration of substrate that gives half-maximal velocity. As to Srt1 (Mycosarcoma maydis), the Km in data set [1] worked out at 26 ± 4.3 µM.

For the origin of these results see publication PMC2817709, “A Novel High-Affinity Sucrose Transporter Is Required for Virulence of the Plant Pathogen Ustilago maydis” (PLoS Biology, 2010).
